Several values for one entry are separate records, joined by “and”; a condition that tells them apart may be missing. Equal values may be shown once. Read-outs that look alike come from different tables or passages of the source.
What was measured:
[1] = system: influenza A (A/Hong Kong/8/68); assay: Antiviral activity (virus-induced cytopathic effect, CellTiterGlo) in infected MDCK cells; format: cell-based, Influenza A virus A/Hong Kong/8/68; conditions: for EC50: MDCK cells infected with Influenza A/HK/68, MOI 0.005, five day incubation, nucleoside form
Experimental: MDCK cells were seeded in 96-well plates at a density of 1 × 10^4 cells per well in 100 μL of MEM medium supplemented with 10% FBS. Medium was removed the next day and the cells were washed twice with 100 μL MEM medium supplemented with 0.125% (w/v) BSA (MEM-BSA). Serially diluted compounds were added to cells in 150 μL MEM-BSA and cells were infected with influenza A (A/Hong Kong/8/68, Advanced Biotechnologies Inc.) at MOI 0.005 in 50 μL of MEM-BSA medium supplemented with 8 μg/mL trypsin (Worthington, Lakewood, NJ). After five day incubation at 37°C, virus-induced cytopathic effect was determined by adding CellTiterGlo viability reagents (Promega, Madison, WI) and the luminescence signal was measured using Perkin Elmer’s Envision MultiLabel plate reader (Santa Clara, CA). The cytotoxicity of compounds in MDCK cells was determined in replicate plates with the same setup as used in the antiviral assay, except no virus was added to the cell culture. EC50 and CC50 values were calculated by non-linear regression analysis using GraphPad Prism (La Jolla, CA) and four parameter logistic sigmoidal dose-response (variable slope) equations.

[2] = molecular target: concentrated cRNP with endogenous viral template (Influenza A virus, UniProt P03431); conditions: 500 μM natural NTPs and/or analogs, 60 minutes
[3] = molecular target: T1, recombinant influenza RdRp (PA/PB1/PB2 heterotrimer) (Influenza A virus, UniProt P03431); assay: Apparent binding affinity (Kapp), single nucleotide incorporation; format: biochemical, Influenza A virus H1N1 strain A/PR/8; conditions: for Selectivity factor, Kapp(analog):Kapp(GTP): natural GTP over analog; for Kapp: SNI-G template, ApG primer, 37°C, 35 minutes, concentration converting half of 9-mer to 10-14-mer
Experimental: (§1) The PA, PB1 and PB2 genes of Influenza A virus RNA polymerase were amplified by reverse-transcription and PCR from H1N1 strain A/PR/8. The 3x FLAG tag was added to the N-terminal full-length PA and cloned into pFastBac1 vector (Life Technologies, Carlsbad, CA). Full-length PB1 and PB2 genes were cloned into pFastBac Dual vector (Life Technologies) as described previously. Recombinant baculovirus was generated for PA and PB1/PB2 using Sf9 cells and was used to co-infect Trichopulsia ni cells (Hi5) at 1.5 x 10^6 cells/ml in ESF-921 medium (Expression Systems, David, CA). Purification and biochemical characterization of the polymerase heterotrimer was described previously. The purified polymerase complex was stored at -80°C prior use.
The apparent binding affinity Kapp was determined for GTP and T-1106-TP as described by Jin et al. 250 nM recombinant polymerase trimer was pre-incubated with 2.5 μM SNI-G template, 1 μM SNI-Pro promoter, and 400 μM ApG primer in a buffer containing 40 mM Tris-HCl (pH 7.0), 20 mM NaCl, 5 mM MgCl2, 2 mM DTT, and 0.2 U/μL RNasin at 37°C. The reaction was initiated by adding a mixture of 25 μM CTP, 25 μM UTP, 25 μCi of α-^33P-UTP, and various concentrations of GTP or analogs. Reactions proceeded for 35 minutes and were quenched with equal volumes of loading dye containing 90% formamide, 100 mM EDTA, 0.1% (w/v) amount of bromphenol blue and xylene cyanol. The products were separated by 25% PAGE, visualized, and quantified by autoradiography as described above. Data were fit with Eq I, where %Max and %Min are respectively the ratios of (10+11+12+13+14-mer)/ (9+10+11+12+13+14-mer) at the highest nucleotide concentration and the baseline level of mis-incorporation of CTP/UTP in the absence of the correct nucleotide (GTP) encoded by the template sequence, Kapp is the concentration at which half of the reactant (9-mer) is converted to products (10+11+12+13+14-mers), and S is the concentration of nucleotide analog.
Y=(%Max−%Min)⋅S/Kapp+S+%Min (I)

[4] = molecular target: recombinant influenza polymerase trimer (RdRp) (Influenza A virus, UniProt P03431); assay: Mechanism of action, gel-based incorporation assay with miniHA template and capped 33P-m7G167 primer; format: biochemical, Influenza A virus H1N1 strain A/PR/8; conditions: 500 μM analog in place of GTP, 500 μM each CTP, UTP, ATP, miniHA template
Experimental: as §1
Recombinant influenza polymerase trimer (80 ng/μL) was incubated with 595 nM ^33P-m^7G^167 and 1.6 μM miniHA template in buffer containing 50 mM HEPES (pH 7.8), 2 mM DTT, 5 mM magnesium acetate, 0.2 U/mL RNasin for 60 minutes at 37°C. After the endonuclease cleavage of ^33P-m^7G^167 was completed, 20 μM of endonuclease inhibitor 4-(1,4-bis(4-chlorobenzyl)piperidin-4-yl)-2,4-dioxobutanoic acid was added to the reaction mixture. The polymerase reactions were initiated by adding nucleotide analogs and three other natural NTPs (all at final concentrations of 500 μM) and 10 μCi α-^33P-ATP. Reactions were incubated at 37°C for 30 minutes and quenched with equal volumes of gel loading dye containing 90% formamide, 100 mM EDTA, 0.1% (w/v) bromphenol blue and xylene cyanol. Reactions were analyzed by electrophoresis (25% polyacrylamide, 8 M urea). The dried gels were exposed to phosphorimager screen and visualized using the Typhoon Trio and ImageQuant Software (GE, Piscataway, NJ.)

[5] = molecular target: viral ribonucleoprotein complexes from detergent-disrupted Influenza A/PR/8/34 (Influenza A virus, UniProt P03431); assay: Influenza polymerase inhibition (IC50) filter binding assay, ApG-primed RNA synthesis by cRNP; conditions: vs T-705-RTP
[6] = in vitro; conditions: dog
[7] = molecular target: T1, recombinant influenza RdRp (PA/PB1/PB2 heterotrimer); parameters: method as in PMID 23874596; conditions: cited from earlier work
[8] = Influenza A virus, MDCK, 120 h, read-out: EC50

Sequence of recombinant influenza polymerase trimer (RdRp) (P03431 whole entry, looked up): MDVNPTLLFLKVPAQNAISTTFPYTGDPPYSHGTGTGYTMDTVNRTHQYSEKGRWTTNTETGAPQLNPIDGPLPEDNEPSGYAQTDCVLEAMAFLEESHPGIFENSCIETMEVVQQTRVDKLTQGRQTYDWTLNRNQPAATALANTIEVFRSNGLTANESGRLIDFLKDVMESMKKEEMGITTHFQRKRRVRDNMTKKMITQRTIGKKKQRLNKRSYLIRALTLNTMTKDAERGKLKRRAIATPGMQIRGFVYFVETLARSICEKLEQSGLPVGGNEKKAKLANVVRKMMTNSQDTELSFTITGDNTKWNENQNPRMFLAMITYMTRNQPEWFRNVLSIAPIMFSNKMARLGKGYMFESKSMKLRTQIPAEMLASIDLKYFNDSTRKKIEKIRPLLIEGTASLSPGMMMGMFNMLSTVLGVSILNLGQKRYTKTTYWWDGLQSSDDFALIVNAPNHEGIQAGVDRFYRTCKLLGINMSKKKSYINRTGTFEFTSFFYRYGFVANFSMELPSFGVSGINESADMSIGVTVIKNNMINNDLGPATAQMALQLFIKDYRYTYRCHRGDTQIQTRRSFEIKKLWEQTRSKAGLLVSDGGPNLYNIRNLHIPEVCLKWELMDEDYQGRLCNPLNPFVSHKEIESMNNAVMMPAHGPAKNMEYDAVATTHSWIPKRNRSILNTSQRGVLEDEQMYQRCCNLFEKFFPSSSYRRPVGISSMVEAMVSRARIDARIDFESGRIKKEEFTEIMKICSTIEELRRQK
T1 sequence (P03431 whole entry, looked up, one chain of several): as the sequence (P03431 whole entry, looked up) above
Sequence of concentrated cRNP with endogenous viral template (P03431 whole entry, looked up): as above
Sequence of viral ribonucleoprotein complexes from detergent-disrupted Influenza A/PR/8/34 (P03431 whole entry, looked up, one chain of several): as the sequence (P03431 whole entry, looked up) above

NC(=O)c1nccn([C@@H]2O[C@H](COP(=O)(O)OP(=O)(O)OP(=O)(O)O)[C@@H](O)[C@H]2O)c1=O [T-1106-TP]
Fold less potent than T-705 in the antiviral assays ([1]; vs T-705, MDCK cells): 12
Incorporation / mode of action in cRNP reactions [2]: incorporation and chain termination
Times lower selectivity factor than the reported selectivity over T-705-TP ([3]; compared with reported selectivity): 6.3
Selectivity factor, Kapp(analog):Kapp(GTP) [3]: 3 and 2.9
Mode of action on RNA synthesis [4]: delayed chain termination
Fold more potent (lower enzymatic IC50) than T-705-RTP in the biochemical assay [5]: 3

NC(=O)c1nc(F)c[nH]c1=O [T-705]
EC50 ([1]; Influenza A virus, MDCK, 120 h): 2.2 µM
EC50 ([1]; read-out: EC50): 2.4 ± 1.1 µM
CC50 [6]: > 100 µM

C=C[C@]1(COP(=O)(O)OP(=O)(O)OP(=O)(O)O)O[C@@H](n2cnc3c(=O)[nH]c(N)nc32)[C@H](F)[C@@H]1O [4’vinyl-FdGTP]
Kapp [3]: 29 µM
Kapp ([3]; listed as 4'vinyl-FdGTP): 29.1 µM
Selectivity factor, Kapp(analog):Kapp(GTP) [3]: 3096
Mode of action on RNA synthesis [4]: direct chain-termination

C=C[C@]1(CO)O[C@@H](n2cnc3c(=O)[nH]c(N)nc32)[C@H](F)[C@@H]1O [4’vinyl-FdG]
EC50 ([1]; Influenza A virus, MDCK, 120 h): 110 µM
EC50 ([1]; read-out: EC50): 116 ± 48 µM
CC50 at 5 day [6]: > 200 µM

NC(=O)c1nccn([C@@H]2O[C@H](CO)[C@@H](O)[C@H]2O)c1=O [T-1106]
EC50 [1, 8]: 27 ± 6 µM
CC50 at 5 day [6]: > 100 µM

Nc1nc2c(ncn2[C@@H]2O[C@H](COP(=O)(O)OP(=O)(O)OP(=O)(O)O)[C@@H](O)[C@H]2F)c(=O)[nH]1 [2’FdGTP]
Incorporation / mode of action in cRNP reactions [2]: stable incorporation
Mode of action on RNA synthesis [4]: stably incorporated into RNA

Nc1nc2c(ncn2[C@@H]2O[C@H](CO)[C@@H](O)[C@H]2F)c(=O)[nH]1 [2’FdG, 2’-deoxy, 2’F guanosine]
EC50 ([1]; Influenza A virus, MDCK, 120 h): 18 µM
EC50 ([1]; read-out: EC50): 19 ± 5 µM
CC50 at 5 day [6]: > 200 µM

N#CC1(COP(=O)(O)OP(=O)(O)OP(=O)(O)O)OC(n2cnc3c(=O)[nH]c(N)nc32)C(F)C1O (stereo not drawn) [4’CN-FdGTP]
Mode of action on RNA synthesis [4]: direct chain-termination

NC(=O)c1nc(F)cn([C@@H]2O[C@H](COP(=O)(O)OP(=O)(O)OP(=O)(O)O)[C@@H](O)[C@H]2O)c1=O [T-705-RTP]
Incorporation / mode of action in cRNP reactions [2]: neither incorporation
Mode of action on RNA synthesis [4]: delayed chain-termination

N#C[C@]1(CO)O[C@@H](n2cnc3c(=O)[nH]c(N)nc32)[C@H](F)[C@@H]1O [4’CN-FdG]
EC50 [1, 8]: > 200 µM
CC50 at 5 day [6]: > 200 µM

Nc1nc2c(ncn2[C@@H]2O[C@H](COP(=O)(O)OP(=O)(O)OP(=O)(O)O)[C@@H](O)[C@H]2O)c(=O)[nH]1 [GTP]
Kapp, reported value [7]: 8 nM
Selectivity factor, Kapp(analog):Kapp(GTP) [3]: 1

Reference: PMC5636120, “Biochemical characterization of recombinant influenza A polymerase heterotrimer complex: Polymerase activity and mechanisms of action of nucleotide analogs” (PLoS ONE, 2017)
